From patent publication US5536714A, “Steroid derivatives for the treatment of prostatic hypertrophy their preparation and uses” (Sankyo Company, Limited, priority 1992, dated 1996)

Test system: Rat 5α-Reductase
Assay: Rat 5α-Reductase Inhibition Test
Assay type: biochemical, rat (Sprague-Dawley, ventral prostate)
Settings: final concentration of test compound 10^-8 M; 1 μM [14C]-testosterone; pH 6.5; 37° C., 15 to 30 minutes
Description: The tissue was then homogenized, first with a Polytron (trade mark) homogenizer (manufactured by Kinematica, GmbH) and then with a Teflon-glass homogenizer (Teflon is a trade mark). The suspension of homogenized prostate tissue was then centrifuged (140000×g, 60 minutes), and the sediment was suspended by adding approximately a 5-fold amount of the above buffer. The suspension was again centrifuged (140000×g, 60 minutes). […] This was adjusted to a protein concentration of 30 to 40 mg/ml by the addition of the buffer described above, and the preparation was then stored frozen at -80° C. Measurement of the amount of protein was performed using the Bio-Rad Protein Assay method, and bovine γ-globulin (Cohn Fraction II, manufactured by Sigma) was used for the protein reference standard. […] The mixture was then incubated at 37° C. for 15 to 30 minutes. Testing was also performed on a control group by adding solvent only. Following incubation, 2 ml of ethyl acetate, containing 10 μg each of testosterone, 5α-dihydrotestosterone and androstenedione, were added to stop the reaction. […] The steroid was dissolved in 40 μl of ethyl acetate and spotted onto a thin layer chromatographic plate (LK5DF silica plate, manufactured by Whatman). The plate was then developed twice at room temperature with a mixture of ethyl acetate and cyclohexane (1:1 by volume). The steroid fraction was identified with ultraviolet light and stained using an aqueous solution of 1% w/v […] and 10% w/v sulfuric acid. The radioactivity profiles of the thin layer chromatographic plate were measured using a bio-image analyzer (manufactured by Fuji Photo Film). Enzyme activity was expressed as the proportion of [^14 C]-5α-dihydrotestosterone that was converted from the [^14 C]-testosterone (conversion rate (%)) added. […]

Compound | Inhibitory Activity [%]
CC(C)(C)NC(=O)[C@H]1CC[C@H]2[C@@H]3CC=C4C=C(C(=O)O)CC[C@]4(C)[C@H]3CC[C@]12C [Compound B, 17β-t-butylcarbamoylandrosta-3,5-diene-3-carboxylic acid, reference compound] | 28.1
C[C@]12CC[C@H]3[C@@H](CC=C4C=C(C(=O)O)CC[C@@]43C)[C@@H]1CC[C@@H]2C(=O)NC(c1ccccc1)c1ccccc1 [Example 1, 17β-[N-(Diphenylmethyl)carbamoyl]androsta-3,5-diene-3-carboxylic acid] | 70.6
C[C@]12CC[C@H]3[C@@H](CC=C4C=C(C(=O)O)CC[C@@]43C)[C@@H]1CC[C@@H]2C(=O)NC(Cc1ccccc1)c1ccccc1 (stereo partly drawn) [Example 6, 17β-[N-(1,2-Diphenylethyl)carbamoyl]androsta-3,5-diene-3-carboxylic acid] | 89.4
CCC(CC)(NC(=O)[C@H]1CC[C@H]2[C@@H]3CC=C4C=C(C(=O)O)CC[C@]4(C)[C@H]3CC[C@]12C)c1ccccc1 [Example 12, 17β-[N-(1-Ethyl-1-phenylpropyl)carbamoyl]androsta-3,5-diene-3-carboxylic acid] | 74.0
C[C@]12CC[C@H]3[C@@H](CC=C4C=C(C(=O)O)CC[C@@]43C)[C@@H]1CC[C@@H]2C(=O)NC(c1ccccc1)c1ccc(O)cc1 (stereo partly drawn) [Example 15, 17β-[N-(4-Hydroxybenzhydryl)carbamoyl]androsta-3,5-diene-3-carboxylic acid] | 73.3
C[C@]12CC[C@H]3[C@@H](CC=C4C=C(C(=O)O)CC[C@@]43C)[C@@H]1CC[C@@H]2C(=O)NC(c1ccc(F)cc1)c1ccc(F)cc1 [Example 16, 17β-[N-(4,4'-Difluorobenzhydryl)carbamoyl]androsta-3,5-diene-3-carboxylic acid] | 81.7
COc1ccc(C(NC(=O)[C@H]2CC[C@H]3[C@@H]4CC=C5C=C(C(=O)O)CC[C@]5(C)[C@H]4CC[C@]23C)c2ccccc2)cc1 (stereo partly drawn) [Example 21, 17β-[N-(4-Methoxybenzhydryl)carbamoyl]androsta-3,5-diene-3-carboxylic acid] | 84.9
C[C@]12CC[C@H]3[C@@H](CC=C4C=C(C(=O)O)CC[C@@]43C)[C@@H]1CC[C@@H]2C(=O)N(Cc1ccccc1)Cc1ccccc1 [Example 25, 17β-(N,N-Dibenzylcarbamoyl)androsta-3,5-diene-3-carboxylic acid] | 79.3

The next lines start with the values.

Inhibitory Activity [%] | Compound
70.6 | COc1ccc(C(C)(C)NC(=O)[C@H]2CC[C@H]3[C@@H]4CC=C5C=C(C(=O)O)CC[C@]5(C)[C@H]4CC[C@]23C)cc1 [Example 2, 17β-{N-[1-(4-Methoxyphenyl)-1-methylethyl]carbamoyl}androsta-3,5-diene-3-carboxylic acid]
70.3 | COc1ccc(C(C)(C)NC(=O)[C@H]2CC[C@H]3[C@@H]4CC=C5C=C(C(=O)O)CC[C@]5(C)[C@H]4CC[C@]23C)cc1OC [Example 7, 17β-{N-[1-(3,4-Dimethoxyphenyl)-1-methylethyl]carbamoyl}androsta-3,5-diene-3-carboxylic acid]
77.9 | COc1cccc(C(C)(C)NC(=O)[C@H]2CC[C@H]3[C@@H]4CC=C5C=C(C(=O)O)CC[C@]5(C)[C@H]4CC[C@]23C)c1 [Example 9, 17β-{N-[1-(3-Methoxyphenyl)-1-methylethyl]carbamoyl}androsta-3,5-diene-3-carboxylic acid]
73.5 | Cc1ccc(C(C)(C)NC(=O)[C@H]2CC[C@H]3[C@@H]4CC=C5C=C(C(=O)O)CC[C@]5(C)[C@H]4CC[C@]23C)cc1 [Example 11, 17β-{N-[1-(4-Methylphenyl)-1-methylethyl]carbamoyl}androsta-3,5-diene-3-carboxylic acid]
84.3 | CCOc1ccc(C(C)(C)NC(=O)[C@H]2CC[C@H]3[C@@H]4CC=C5C=C(C(=O)O)CC[C@]5(C)[C@H]4CC[C@]23C)cc1 [Example 13, 17β-{N-[1-(4-Ethoxyphenyl)-1-methylethyl]carbamoyl}androsta-3,5-diene-3-carboxylic acid]
